According to ChEMBL document CHEMBL3227941, “3-Substituted adenines. In vitro enzyme inhibition and antiviral activity” (J Med Chem, 1979):

Legend:
Format in all cases: functional
Settings in all cases: route intraperitoneal
[1] = tested on: Rattus norvegicus; experiment: Inhibition of dopamine-beta-hydroxylase in Wistar rat assessed as reduction of norepinephrine level in heart at 50 mg/kg, ip after 24 hrs (reference value: 0.55 +/- 0.04 ug/g)
[2] = tested on: Rattus norvegicus; experiment: Inhibition of dopamine-beta-hydroxylase in Wistar rat assessed as reduction of adrenal catecholamine level at 50 mg/kg, ip after 24 hrs assessed per adrenal pair (reference value: 10.6 +/- 0.7 ug)
[3] = tested on: Rattus norvegicus; experiment: Inhibition of dopamine-beta-hydroxylase in Wistar rat assessed as reduction of norepinephrine level in brain at 50 mg/kg, ip after 24 hrs (reference value: 0.67 +/- 0.02 ug/g)
[4] = tested on: Rattus norvegicus; experiment: Inhibition of dopamine-beta-hydroxylase in Wistar rat assessed as reduction of norepinephrine level in heart at 50 mg/kg, ip after 3 hrs (reference value: 0.55 +/- 0.04 ug/g)
[5] = tested on: Rattus norvegicus; experiment: Inhibition of dopamine-beta-hydroxylase in Wistar rat assessed as reduction of adrenal catecholamine level at 50 mg/kg, ip after 6 hrs assessed per adrenal pair (reference value: 10.6 +/- 0.7 ug)
[6] = tested on: Rattus norvegicus; experiment: Inhibition of dopamine-beta-hydroxylase in Wistar rat assessed as reduction of norepinephrine level in brain at 50 mg/kg, ip after 6 hrs (reference value: 0.67 +/- 0.02 ug/g)
[7] = tested on: Rattus norvegicus; experiment: Inhibition of dopamine-beta-hydroxylase in Wistar rat assessed as reduction of adrenal catecholamine level at 50 mg/kg, ip after 3 hrs assessed per adrenal pair (reference value: 10.6 +/- 0.7 ug)
[8] = tested on: Rattus norvegicus; experiment: Inhibition of dopamine-beta-hydroxylase in Wistar rat assessed as reduction of norepinephrine level in heart at 50 mg/kg, ip after 6 hrs (reference value: 0.55 +/- 0.04 ug/g)
[9] = tested on: Rattus norvegicus; experiment: Inhibition of dopamine-beta-hydroxylase in Wistar rat assessed as reduction of norepinephrine level in brain at 50 mg/kg, ip after 3 hrs (reference value: 0.67 +/- 0.02 ug/g)

Question: Which results are given for Br.CCCCCn1cnc(N)c2ncnc1-2.Cl?
Answer: Activity [1]: 0.56 µg/g; Activity [2]: 11.3 µg; Activity [3]: 0.62 µg/g; Activity [4]: 0.59 µg/g; Activity [5]: 12.1 µg; Activity [6]: 0.62 µg/g; Activity [7]: 14.1 µg; Activity [8]: 0.57 µg/g; Activity [9]: 0.65 µg/g
